Results from US20090270448A1, “PHARMACEUTICAL FORMULATIONS COMPRISING CLOPIDOGREL” (ACINO PHARMA AG, priority 2006, published 2009).
Structures can show the parent of a compound that is named as a salt.

Legend:
[1] = Storage stability of clopidogrel besylate and melt granulates containing it (HPLC impurities); assay type: physicochemical
Procedure: The stability on storage of clopidogrel besylate salt (CLO.Bes) is examined in comparison to melt granulates containing it. The main degradation product is alpha-(2-chlorophenyl)-4,5,6,7-tetrahydrothieno[3,2-c]pyridine-5-acetic acid, hereinafter designated as “ImpA” (ImpA is named according to USP 29 and corresponds to the hydrolysis product of Clopidogrel). In addition, the sum of all impurities (“SumImp”) is determined. Both ImpA and SumImp are expressed as percent by weight of the amount of the clopidogrel salt at the beginning of the experiment on day 0 and are determined using the HPLC-system described below.
In the below Table 1 for example the term “10% PEG 6000” means the melt granulate consisting of 10% by weight PEG 6000 and 90% by weight clopidogrel besylate, 30% PEG 6000 means the melt granulate consisting of 30% by weight PEG 6000 and 70% by weight clopidogrel besylate, etc.
The above-mentioned HPLC system is as follows:
Column: 250 mm×4.6 mm Modulo-Cart QS Uptisphere HDO, 3 μm
Detector: UV Detector or DAD Detector
Eluent A: 0.01M sodium phosphate dibasic aqueous solution (1.78 g Na2HPO4*2H2O/l), adjusted to pH 3.0±0.05 with phosphoric acid 85%
Mobile phase: 35% Eluent A+65% Eluent B
Preparation of Reference and Sample Solutions:
Approximately 55.92 mg of clopidogrel besilate reference substance are weighed into a 50 ml volumetric flask. Add 20 ml of mobile phase and sonicate in an ultrasonic bath at ambient temperature until the substance is dissolved (approx. 5 min). Make up to the mark with mobile phase. The concentration of clopidogrel besilate is 0.75 mg/ml as free base. Two independent reference solutions are prepared.
Sample Solution for 75 mg Tablets
Weigh 10 tablets and transfer them quantitatively into a 250 ml volumetric flask. Dissolve and make up to the mark with mobile phase. Dilute 25.0 ml to 100.0 ml with mobile phase. Filter through a 0.45 μm PTFE-filter in a HPLC vial. The concentration of clopidogrel is 0.75 mg/ml as free base. Two independent sample solutions are prepared.

[2] = Storage stability of clopidogrel hydrochloride and melt granulates containing it (HPLC impurities); assay type: physicochemical
Procedure: The stability on storage of clopidogrel hydrochloride salt (CLO.HCl) has been examined in comparison to melt granulates containing it. The main degradation product is alpha-(2-chlorophenyl)-4,5,6,7-tetrahydrothieno[3,2-c]pyridine-5-acetic acid, hereinafter designated as “ImpA” (impurity acid). In addition, the sum of all impurities (“SumImp”) is determined by HPLC analogously as described above for clopidogrel besylate. Both ImpA and SumImp are expressed as percent by weight of the amount of the clopidogrel salt at the beginning of the experiment on day 0. The granulates mentioned in the below Table 2 are melt granulates consisting of 50% by weight of PEG 6000 and 50% clopidogrel hydrochloride, and 50% Compritol 888 ATO and 50% clopidogrel hydrochloride, respectively.

[3] = Day 0, percent by weight of the clopidogrel salt at day 0, HPLC
[4] = Day 15 at 50° C. and 75% relative humidity
[5] = Day 30 at 40° C. and 75% relative humidity

Structure (SMILES) | ImpA [%] [1, 3] [%] | SumImp [%] ([1]; Day 0, sum of all impurities, percent by weight of the clopidogrel salt at day 0, HPLC) | ImpA [%] [1, 4] [%] | SumImp [%] [1, 4] [%] | SumImp [%] ([2]; Day 0) | ImpA [%] [2, 3] [%] | ImpA [%] [2, 5] [%] | SumImp [%] [2, 5] [%] | impurities relative to clopidogrel hydrochloride stabilized in the melt granulates ([2]; after storage for 30 days at 40° C. and 75% relative humidity)
COC(=O)[C@H](c1ccccc1Cl)N1CCc2sccc2C1 [CLO•Bes, clopidogrel besylate] | 0.09 | 0.24 | 0.34 | 0.52 |  |  |  |  | 
COC(=O)[C@H](c1ccccc1Cl)N1CCc2sccc2C1 [CLO•HCl, clopidogrel hydrochloride] |  |  |  |  | 0.58 | 0.18 | 1.28 | 1.99 | nearly twice as much impurities
